How the values were obtained:
Format in all cases: in vivo
Details in all cases: in vivo
[1] = tested on: Phytophthora infestans
[2] = tested on: Sphaerotheca fuliginea; test: Sphaerotheca test (cucumber)/protective
Experimental: (§1) Solvent: 49 parts by weight of N,N-dimethylformamide
(§2) Emulsifier: 1 part by weight of alkylaryl polyglycol ether
(§3) To produce a suitable preparation of active compounds, 1 part by weight of active compound is mixed with the stated amounts of solvent and emulsifier, and the concentrate is diluted with water to the desired concentration.
To test for protective activity, young cucumber plants are sprayed with the active compound preparation at the stated application rate. 1 day after the treatment, the plants are inoculated with a spore suspension of Sphaerotheca fuliginea. The plants are then placed in a greenhouse at 70% rel. atmospheric humidity and a temperature of 23° C.
(§4) Evaluation is carried out 7 days after the inoculation. 0% means an efficacy which corresponds to that of the control, whereas an efficacy of 100% means that no infection is observed.

[3] = tested on: Pyrenophora teres; test: Pyrenophora teres test (barley)/protective
Experimental: as §1, §2, §3
(§5) To test for protective activity, young barley plants are sprayed with the active compound preparation at the stated application rate. 1 day after the treatment, the plants are inoculated with an aqueous spore suspension of Pyrenophora teres and then remain at 100% rel. atmospheric humidity and 22° C. for 48 h. The plants are then placed in a greenhouse at 80% rel. atmospheric humidity and a temperature of 20° C.
(§6) Evaluation is carried out 7-9 days after the inoculation. 0% means an efficacy which corresponds to that of the control, whereas an efficacy of 100% means that no infection is observed.

[4] = tested on: Leptosphaeria nodorum; test: Leptosphaeria nodorum test (wheat)/protective
Experimental: as §1, §2, §3
as §5, with “wheat” for “barley”, “Leptosphaeria nodorum” for “Pyrenophora teres”, “90%” for “80%”, “22°” for “20°”
as §6

[5] = tested on: Alternaria solani; test: Alternaria test (tomato)/protective
Experimental: as §1, §2
To produce a suitable preparation of active compound, 1 part by weight of active compound is mixed with the stated amounts of solvent and emulsifier, and the concentrate is diluted with water to the desired concentration.
To test for protective activity, young tomato plants are sprayed with the active compound preparation at the stated application rate. 1 day after the treatment, the plants are inoculated with a spore suspension of Alternaria solani and then remain at 100% rel. humidity and 22° C. for 24 h. The plants then remain at 96% rel. atmospheric humidity and a temperature of 20° C.
as §4

Q: Which results are given for `O=C(CC1CC1)Nc1cc(-c2c(-c3ccc(F)cc3)nn3c2COCC3)ccn1` [Example 113]?
A: efficacy in % [1]: 70%; efficacy in % [2]: 98%; efficacy in % [3]: 94%; efficacy in % [4]: 78%; efficacy in % [5]: 90%

Q: With `CC1(C)OCCc2c(-c3ccnc(NC(=O)C4CC4)c3)c(-c3ccc(F)cc3)nn21` [Example 84] as the compound, how does the efficacy in % [2] read?
A: 98%

Q: What about the efficacy in % [3] of the same compound?
A: 94%

Q: What about the efficacy in % [4] of the same compound?
A: 88%

Q: `CCC(=O)Nc1cc(-c2c(-c3ccccc3)nn3c2COCC3)ccn1` [Example 100] was tested. Which efficacy in % [2] did it give?
A: 95%

Q: And the efficacy in % [3]?
A: 100%

Q: And the efficacy in % [4]?
A: 70%

Q: What about the efficacy in % [5] of the same compound?
A: 80%

Q: How did the efficacy in % [2] turn out when `CC(=O)Nc1cc(-c2c(-c3ccc(F)cc3)nn3c2CCCCC3)ccn1` [Example 99] was run?
A: 98%

Q: What about the efficacy in % [3] of the same compound?
A: 95%

Q: And the efficacy in % [4]?
A: 95%

Q: What about the efficacy in % [5] of the same compound?
A: 80%

Q: For `FC(F)(F)c1ccc(-c2nn3c(c2-c2ccncc2)CCC3)cc1` [Example 17], which efficacy in % [1] is on record?
A: 80%

Q: Which efficacy in % [1] does the source give for `CCC(=O)Nc1cc(-c2c(-c3cccs3)nn3c2CCCC3)ccn1` [Example 75] here?
A: 80%

Q: What about the efficacy in % [2] of the same compound?
A: 95%

Q: What about the efficacy in % [3] of the same compound?
A: 100%

Q: And the efficacy in % [5]?
A: 95%

Q: Which efficacy in % [1] does the source give for `CC(C)CNc1cc(-c2c(-c3ccc(F)cc3)nn3c2CCC3)ccn1` [Example 71] here?
A: 80%

Q: And the efficacy in % [3]?
A: 80%

Q: Which results are given for `CCC(=O)Nc1cc(-c2c(-c3ccc(F)cc3)nn3c2CCOC3)ccn1` [Example 95]?
A: efficacy in % [2]: 95%; efficacy in % [3]: 100%; efficacy in % [4]: 90%; efficacy in % [5]: 80%

Q: How did the efficacy in % [2] turn out when `CC(C)C(=O)Nc1cc(-c2c(-c3ccc(F)cc3)nn3c2CCCCC3)ccn1` [Example 97] was run?
A: 100%

Q: What about the efficacy in % [3] of the same compound?
A: 100%

Q: What about the efficacy in % [4] of the same compound?
A: 80%

Q: What about the efficacy in % [5] of the same compound?
A: 70%

Q: With `CC(C)C(=O)Nc1cc(-c2c(-c3cccs3)nn3c2CCCC3)ccn1` [Example 88] as the compound, how does the efficacy in % [1] read?
A: 80%

Q: What about the efficacy in % [2] of the same compound?
A: 95%

Q: And the efficacy in % [3]?
A: 90%

Q: And the efficacy in % [5]?
A: 90%

Q: `O=C(Nc1cc(-c2c(-c3ccc(F)cc3)nn3c2CCOC3)ccn1)C1CC1` [Example 107] was tested. Which efficacy in % [2] did it give?
A: 100%

Q: And the efficacy in % [3]?
A: 95%

Q: And the efficacy in % [4]?
A: 90%

Q: Which efficacy in % [2] does the source give for `CCC(=O)Nc1cc(-c2c(-c3ccc(F)cc3)nn3c2COCC3)ccn1` [Example 104] here?
A: 93%

Q: And the efficacy in % [3]?
A: 95%

Q: And the efficacy in % [5]?
A: 80%

Q: Which efficacy in % [2] does the source give for `CC1CC1C(=O)Nc1cc(-c2c(-c3ccc(F)cc3)nn3c2CCOC3)ccn1` (centres unmarked) [Example 108] here?
A: 95%

Q: And the efficacy in % [3]?
A: 95%

Q: And the efficacy in % [4]?
A: 70%

Q: What about the efficacy in % [5] of the same compound?
A: 80%

Q: Which results are given for `O=C(Nc1cc(-c2c(-c3ccc(F)cc3)nn3c2CCOC3)ccn1)C1CCC1` [Example 109]?
A: efficacy in % [2]: 93%; efficacy in % [3]: 95%; efficacy in % [5]: 90%

Q: With `COCC(=O)Nc1cc(-c2c(-c3ccc(F)cc3)nn3c2CCOC3)ccn1` [Example 94] as the compound, how does the efficacy in % [2] read?
A: 93%

Q: What about the efficacy in % [3] of the same compound?
A: 95%

Q: What about the efficacy in % [5] of the same compound?
A: 90%

Q: Which efficacy in % [2] does the source give for `CC(C)CC(=O)Nc1cc(-c2c(-c3ccc(F)cc3)nn3c2CCOC3)ccn1` [Example 112] here?
A: 95%

Q: What about the efficacy in % [3] of the same compound?
A: 95%

Q: And the efficacy in % [4]?
A: 90%

Q: And the efficacy in % [5]?
A: 90%

Q: `CN(C)C=Nc1cc(-c2c(-c3ccc(F)cc3)nn3c2CCCC3)ccn1` [Example 39] was tested. Which efficacy in % [1] did it give?
A: 80%

Q: What about the efficacy in % [3] of the same compound?
A: 95%

Q: What about the efficacy in % [5] of the same compound?
A: 80%

Q: With `CC1CC1C(=O)Nc1cc(-c2c(-c3ccc(F)cc3)nn3c2CCOC3(C)C)ccn1` (centres unmarked) [Example 101] as the compound, how does the efficacy in % [2] read?
A: 98%

Q: And the efficacy in % [3]?
A: 95%

Q: What about the efficacy in % [4] of the same compound?
A: 70%

Q: And the efficacy in % [5]?
A: 90%

Q: With `CC1(C)OCCc2c(-c3ccnc(NC(=O)C4CCC4)c3)c(-c3ccc(F)cc3)nn21` [Example 102] as the compound, how does the efficacy in % [2] read?
A: 100%

Q: What about the efficacy in % [3] of the same compound?
A: 95%

Q: What about the efficacy in % [4] of the same compound?
A: 90%

Q: What about the efficacy in % [5] of the same compound?
A: 95%

Q: For `Nc1cc(-c2c(-c3ccc(F)cc3)nn3c2CCC3)ccn1` [Example 69], which efficacy in % [1] is on record?
A: 70%

Q: With `CC(C)Nc1cc(-c2c(-c3ccc(Cl)cc3)nn3c2CCC3)ccn1` [Example 48] as the compound, how does the efficacy in % [1] read?
A: 70%
